Measurements taken from the NIST ThermoML archive (doi:10.1016/j.tca.2017.12.013).

Experiment: molar heat capacity at constant pressure
Conditions: 101.33 kPa, DSC

[Ag+].[Ag+].[S-2] [silver sulfide]
Conditions | molar heat capacity at constant pressure [J/K/mol]
299.71 K, Crystal 3 | 73.92
300.71 K, Crystal 3 | 74.02
301.71 K, Crystal 3 | 74.12
302.71 K, Crystal 3 | 74.21
303.71 K, Crystal 3 | 74.31
304.71 K, Crystal 3 | 74.4
305.71 K, Crystal 3 | 74.46
306.71 K, Crystal 3 | 74.53
307.71 K, Crystal 3 | 74.62
308.71 K, Crystal 3 | 74.69
309.71 K, Crystal 3 | 74.77
310.71 K, Crystal 3 | 74.85
311.71 K, Crystal 3 | 74.92
312.71 K, Crystal 3 | 75.14
313.71 K, Crystal 3 | 75.21
314.71 K, Crystal 3 | 75.29
315.71 K, Crystal 3 | 75.36
316.71 K, Crystal 3 | 75.42
317.71 K, Crystal 3 | 75.49
318.71 K, Crystal 3 | 75.53
319.71 K, Crystal 3 | 75.58
320.71 K, Crystal 3 | 75.65
321.71 K, Crystal 3 | 75.71
322.71 K, Crystal 3 | 75.78
323.71 K, Crystal 3 | 75.84
324.71 K, Crystal 3 | 75.9
325.71 K, Crystal 3 | 75.97
326.71 K, Crystal 3 | 76.03
327.71 K, Crystal 3 | 76.09
328.71 K, Crystal 3 | 76.14
329.71 K, Crystal 3 | 76.2
330.71 K, Crystal 3 | 76.26
331.71 K, Crystal 3 | 76.31
332.71 K, Crystal 3 | 76.37
333.71 K, Crystal 3 | 76.42
334.71 K, Crystal 3 | 76.48
335.71 K, Crystal 3 | 76.53
336.71 K, Crystal 3 | 76.58
337.71 K, Crystal 3 | 76.63
338.71 K, Crystal 3 | 76.68
339.71 K, Crystal 3 | 76.74
340.71 K, Crystal 3 | 76.79
341.71 K, Crystal 3 | 76.84
342.71 K, Crystal 3 | 76.89
343.71 K, Crystal 3 | 76.93
344.71 K, Crystal 3 | 76.98
345.71 K, Crystal 3 | 77.03
346.71 K, Crystal 3 | 77.08
347.71 K, Crystal 3 | 77.13
348.71 K, Crystal 3 | 77.18
349.71 K, Crystal 3 | 77.22
350.71 K, Crystal 3 | 77.27
351.71 K, Crystal 3 | 77.32
352.71 K, Crystal 3 | 77.37
353.71 K, Crystal 3 | 77.42
354.71 K, Crystal 3 | 77.46
355.71 K, Crystal 3 | 77.51
356.71 K, Crystal 3 | 77.56
357.71 K, Crystal 3 | 77.61
358.71 K, Crystal 3 | 77.66
359.71 K, Crystal 3 | 77.71
360.71 K, Crystal 3 | 77.76
361.71 K, Crystal 3 | 77.81
362.71 K, Crystal 3 | 77.86
363.71 K, Crystal 3 | 77.91
364.71 K, Crystal 3 | 77.96
365.71 K, Crystal 3 | 78.01
366.71 K, Crystal 3 | 78.07
367.71 K, Crystal 3 | 78.12
368.71 K, Crystal 3 | 78.17
369.71 K, Crystal 3 | 78.23
370.71 K, Crystal 3 | 78.29
371.71 K, Crystal 3 | 78.34
372.71 K, Crystal 3 | 78.4
373.71 K, Crystal 3 | 78.46
374.71 K, Crystal 3 | 78.52
375.71 K, Crystal 3 | 78.58
376.71 K, Crystal 3 | 78.64
377.71 K, Crystal 3 | 78.7
378.71 K, Crystal 3 | 78.76
379.71 K, Crystal 3 | 78.83
380.71 K, Crystal 3 | 78.89
381.71 K, Crystal 3 | 78.96
382.71 K, Crystal 3 | 79.03
383.71 K, Crystal 3 | 79.1
384.71 K, Crystal 3 | 79.17
385.71 K, Crystal 3 | 79.24
386.71 K, Crystal 3 | 79.31
387.71 K, Crystal 3 | 79.39
388.71 K, Crystal 3 | 79.46
389.71 K, Crystal 3 | 79.54
390.71 K, Crystal 3 | 79.62
391.71 K, Crystal 3 | 79.7
392.71 K, Crystal 3 | 79.79
393.71 K, Crystal 3 | 79.87
394.71 K, Crystal 3 | 79.96
395.71 K, Crystal 3 | 80.04
396.71 K, Crystal 3 | 80.13
397.71 K, Crystal 3 | 80.23
398.71 K, Crystal 3 | 80.32
399.71 K, Crystal 3 | 80.41
400.71 K, Crystal 3 | 80.5
401.71 K, Crystal 3 | 80.6
402.71 K, Crystal 3 | 80.69
403.71 K, Crystal 3 | 80.78
404.71 K, Crystal 3 | 80.88
405.71 K, Crystal 3 | 80.98
406.71 K, Crystal 3 | 81.09
407.71 K, Crystal 3 | 81.19
408.71 K, Crystal 3 | 81.3
409.71 K, Crystal 3 | 81.41
410.71 K, Crystal 3 | 81.52
411.71 K, Crystal 3 | 81.63
412.71 K, Crystal 3 | 81.75
413.71 K, Crystal 3 | 81.87
414.71 K, Crystal 3 | 81.99
415.71 K, Crystal 3 | 82.11
416.71 K, Crystal 3 | 82.24
417.71 K, Crystal 3 | 82.37
418.71 K, Crystal 3 | 82.5
419.71 K, Crystal 3 | 82.64
420.71 K, Crystal 3 | 82.77
421.71 K, Crystal 3 | 82.91
422.71 K, Crystal 3 | 83.06
423.71 K, Crystal 3 | 83.2
424.71 K, Crystal 3 | 83.35
425.71 K, Crystal 3 | 83.51
426.71 K, Crystal 3 | 83.66
427.71 K, Crystal 3 | 83.82
428.71 K, Crystal 3 | 83.98
429.71 K, Crystal 3 | 84.15
430.71 K, Crystal 3 | 84.32
431.71 K, Crystal 3 | 84.49
432.71 K, Crystal 3 | 84.66
433.71 K, Crystal 3 | 84.84
434.71 K, Crystal 3 | 85.01
435.71 K, Crystal 3 | 85.19
436.71 K, Crystal 3 | 85.36
437.71 K, Crystal 3 | 85.54
438.71 K, Crystal 3 | 85.72
439.71 K, Crystal 3 | 85.91
440.71 K, Crystal 3 | 86.2
441.71 K, Crystal 3 | 86.6
442.71 K, Crystal 3 | 87.1
443.71 K, Crystal 3 | 87.6
444.71 K, Crystal 3 | 88.38
446.71 K, Crystal 3 | 90.5
447.71 K, Crystal 3 | 92.95
448.71 K, Crystal 3 | 93.65
449.71 K, Crystal 3 | 94.94
461.57 K, Crystal 2 | 90.56
462.57 K, Crystal 2 | 90.49
463.57 K, Crystal 2 | 90.42
